20 compounds from US11753404B2, “Aminothiazole compounds as c-Kit inhibitors” (Ariad Pharmaceuticals, Inc., priority 2016, dated 2023) can be followed below.

Some results are limits rather than exact numbers.

What all share (assay): c-Kit assay: Ba/F3 KIT mutant cell viability (Cell Titer-Glo, 72 hours)
Common to all, as to type: cell-based
Holding throughout (conditions): viability after 72 hours
In general terms: ATP-based viability assays read luminescence as a measure of living cells.

Experiment [1] addresses T1, BAF3 FL KIT EX11DEL/T670I (Homo sapiens, UniProt P10721, T670I, cells depend on it, form not given).
T1 construct: BAF3 FL KIT EX11DEL/T670I
On the procedure: (§1) Generation of DBa/F3 KIT Mutant Engineered Cell Lines
(§2) KIT cDNAs were synthesized by GenScript and cloned into the pLVX-IRES-Puro vector (Clontech). Viral particles were produced by transfecting pLVX-IRES-puro vectors containing KIT mutant genes into HEK293 cells (Invitrogen) using the Trans-Lentiviral ORF Packaging Kit (Thermo Scientific). 48 hours post-transfection, virus-containing supernatants were harvested and incubated for another 48-72 hours with parental Ba/F3 cells (DSMZ) in the presence of 10 ng/mL IL-3 (R&D Systems). Transduced Ba/F3 cells were then selected by IL-3 withdrawal and puromycin (0.5-1 μg/mL, Invitrogen).
(§3) Cell lines (e.g., EX11DEL, EX11DEL/D816H, EX11DEL/T670I, and EX11DEL/V654A) were plated into 384 well plates using RPMI 1640 supplemented with 10% FBS at densities that produced linear growth and incubated at 37° C. in 5% (v/v) CO2. Cells were treated with eight concentrations of compound over a 4-fold dilution (10 μM to 0.61 nM) and viability was assessed using Cell Titer-Glo assay (Promega) after 72 hours. Data were plotted as percent viability relative to vehicle-treated cells. Dose-responses curves were generated and used to calculate IC50 values.

For experiment [2], the target named is T2, BAF3 FL KIT EX11DEL/V654A (Homo sapiens, UniProt P10721, V654A, cells depend on it, form not given).
T2 construct: BAF3 FL KIT EX11DEL/V654A
As to the method: as §1, §2, §3

The target of another experiment is T3, BAF3 FL KIT EX11DEL (Homo sapiens, UniProt P10721, cells depend on it, form not given).
T3 construct: BAF3 FL KIT EX11DEL
On the procedure:
as §1, §2, §3

Experiment [3] has as its target T4, BAF3 FL KIT EX11DEL/D816H (Homo sapiens, UniProt P10721, D816H, cells depend on it, form not given).
T4 construct: BAF3 FL KIT EX11DEL/D816H
As to the method: as §1, §2, §3

T2 sequence (P10721 with tags, fused parts or gaps DEL557-558/V654A, form open): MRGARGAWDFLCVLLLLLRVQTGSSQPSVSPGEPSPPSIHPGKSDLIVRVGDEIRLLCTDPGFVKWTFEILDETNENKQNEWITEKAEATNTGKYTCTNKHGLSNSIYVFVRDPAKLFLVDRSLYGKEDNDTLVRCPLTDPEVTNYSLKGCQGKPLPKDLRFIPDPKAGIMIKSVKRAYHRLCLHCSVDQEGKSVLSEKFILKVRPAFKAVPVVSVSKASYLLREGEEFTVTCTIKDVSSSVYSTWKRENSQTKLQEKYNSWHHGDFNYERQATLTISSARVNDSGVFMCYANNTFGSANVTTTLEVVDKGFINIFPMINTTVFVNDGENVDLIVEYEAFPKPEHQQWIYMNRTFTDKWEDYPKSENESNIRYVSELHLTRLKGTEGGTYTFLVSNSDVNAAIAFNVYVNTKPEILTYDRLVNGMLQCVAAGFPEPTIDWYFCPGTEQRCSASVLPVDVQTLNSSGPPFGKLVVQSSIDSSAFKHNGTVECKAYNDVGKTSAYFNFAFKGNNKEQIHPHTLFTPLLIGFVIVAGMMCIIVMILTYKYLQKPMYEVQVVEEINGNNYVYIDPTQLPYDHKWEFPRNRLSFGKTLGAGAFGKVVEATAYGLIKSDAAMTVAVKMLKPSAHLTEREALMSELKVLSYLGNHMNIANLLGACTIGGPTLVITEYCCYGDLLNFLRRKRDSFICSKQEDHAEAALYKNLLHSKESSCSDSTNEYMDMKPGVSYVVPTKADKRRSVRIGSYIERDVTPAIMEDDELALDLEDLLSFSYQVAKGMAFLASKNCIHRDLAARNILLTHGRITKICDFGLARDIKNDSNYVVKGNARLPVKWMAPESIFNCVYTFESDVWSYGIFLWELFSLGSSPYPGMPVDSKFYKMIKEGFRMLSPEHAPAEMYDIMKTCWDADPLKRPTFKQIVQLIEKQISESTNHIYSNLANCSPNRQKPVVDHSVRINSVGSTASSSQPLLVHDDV
T3 sequence (P10721 with tags, fused parts or gaps DEL557-558): as the sequence (P10721 with tags, fused parts or gaps DEL557-558/V654A, form open) above, with A652V counted along it
T4 sequence (P10721 with tags, fused parts or gaps DEL557-558/D816H, form open): as the sequence (P10721 with tags, fused parts or gaps DEL557-558/V654A, form open) above, with A652V, D814H counted along it
T1 sequence (P10721 with tags, fused parts or gaps DEL557-558/T670I, form open): as the sequence (P10721 with tags, fused parts or gaps DEL557-558/V654A, form open) above, with A652V, T668I counted along it

The GI50 is the concentration at which growth is held to half of that of the control. Read a low GI50 as greater sensitivity of the cells. Regarding `Cc1ccc(C(=O)Nc2cc(C(F)(F)F)ccn2)cc1C#Cc1cnc(NC(=O)N(C)C)s1` [I-1, 3-((2-(3,3-dimethylureido)thiazol-5-yl)ethynyl)-4-methyl-N-(4-(trifluoromethyl)pyridin-2-yl)benzamide], the GI50 (in experiment [1]; in experiment [2]; at BAF3 FL KIT EX11DEL; in experiment [3]) was less than 10 nM throughout.

For the compound `Cc1ccc(C(=O)Nc2cc(C(F)(F)F)ccn2)cc1C#Cc1cnc(NC(N)=O)s1` [I-2, 4-methyl-N-(4-(trifluoromethyl)pyridin-2-yl)-3-((2-ureidothiazol-5-yl)ethynyl)benzamide], the GI50 in experiment [1] was less than 10 nM; in experiment [2] it was less than 10 nM; at BAF3 FL KIT EX11DEL, less than 10 nM; in experiment [3] it was 10 to 50 nM.

Turning to `COC(=O)Nc1ncc(C#Cc2cc(C(=O)Nc3cc(C(F)(F)F)ccn3)ccc2C)s1` [I-3, methyl (5-((2-methyl-5-((4-(trifluoromethyl)pyridin-2-yl)carbamoyl)phenyl)ethynyl)thiazol-2-yl)carbamate], the GI50 in experiment [1] is 10 to 50 nM; in experiment [2] it was 10 to 50 nM; at BAF3 FL KIT EX11DEL, less than 10 nM; in experiment [3], 10 to 50 nM.

As to `CNC(=O)Nc1ncc(C#Cc2cc(C(=O)Nc3cc(C(F)(F)F)ccn3)ccc2C)s1` [I-4, 4-methyl-3-((2-(3-methylureido)thiazol-5-yl)ethynyl)-N-(4-(trifluoromethyl)pyridin-2-yl)benzamide], the GI50 in experiment [1] is less than 10 nM; in experiment [2], 10 to 50 nM; on BAF3 FL KIT EX11DEL, less than 10 nM; in experiment [3], less than 10 nM.

Take `COCCNC(=O)Nc1ncc(C#Cc2cc(C(=O)Nc3cc(C(F)(F)F)ccn3)ccc2C)s1` [I-5, 3-((2-(3-(2-methoxyethyl)ureido)thiazol-5-yl)ethynyl)-4-methyl-N-(4-(trifluoromethyl)pyridin-2-yl)benzamide]: the GI50 in experiment [1] is 10 to 50 nM; in experiment [2] it was 10 to 50 nM; at BAF3 FL KIT EX11DEL, less than 10 nM; in experiment [3], 10 to 50 nM.

As to `Cc1ccc(C(=O)Nc2cc(C(F)(F)F)ccn2)cc1C#Cc1cnc(NC(=O)NCCN2CCOCC2)s1` [I-6, 4-methyl-3-((2-(3-(2-morpholinoethyl)ureido)thiazol-5-yl)ethynyl)-N-(4-(trifluoromethyl)pyridin-2-yl)benzamide], the GI50 in experiment [1] was 10 to 50 nM; in experiment [2] it was 10 to 50 nM; on BAF3 FL KIT EX11DEL it was less than 10 nM; in experiment [3], 10 to 50 nM.

With `COCCN(C)C(=O)Nc1ncc(C#Cc2cc(C(=O)Nc3cc(C(F)(F)F)ccn3)ccc2C)s1` [I-7, 3-((2-(3-(2-methoxyethyl)-3-methylureido)thiazol-5-yl)ethynyl)-4-methyl-N-(4-(trifluoromethyl)pyridin-2-yl)benzamide], the GI50 is less than 10 nM in experiment [1], 10 to 50 nM in experiment [2], less than 10 nM on BAF3 FL KIT EX11DEL and 10 to 50 nM in experiment [3].

As to `CCN(C)C(=O)Nc1ncc(C#Cc2cc(C(=O)Nc3cc(C(F)(F)F)ccn3)ccc2C)s1` [I-8, 3-((2-(3-ethyl-3-methylureido)thiazol-5-yl)ethynyl)-4-methyl-N-(4-(trifluoromethyl)pyridin-2-yl)benzamide], the GI50 is less than 10 nM in experiment [1], 10 to 50 nM in experiment [2], less than 10 nM at BAF3 FL KIT EX11DEL and less than 10 nM in experiment [3].

On to `Cc1ccc(C(=O)Nc2cc(C(F)(F)F)ccn2)cc1C#Cc1cnc(NC(=O)N(C)CCN(C)C)s1` [I-9, 3-((2-(3-(2-(dimethylamino)ethyl)-3-methylureido)thiazol-5-yl)ethynyl)-4-methyl-N-(4-(trifluoromethyl)pyridin-2-yl)benzamide], for which the GI50 in experiment [1] was less than 10 nM; in experiment [2], 10 to 50 nM; at BAF3 FL KIT EX11DEL, less than 10 nM; in experiment [3], 10 to 50 nM.

As to `Cc1ccc(C(=O)Nc2cc(C(F)(F)F)ccn2)cc1C#Cc1cnc(NC(=O)N(C)CCO)s1` [I-10, 3-((2-(3-(2-hydroxyethyl)-3-methylureido)thiazol-5-yl)ethynyl)-4-methyl-N-(4-(trifluoromethyl)pyridin-2-yl)benzamide], the GI50 (in experiment [1]; in experiment [2]; on BAF3 FL KIT EX11DEL; in experiment [3]) was less than 10 nM throughout.

Turning to `Cc1ccc(C(=O)Nc2cc(C(F)(F)F)ccn2)cc1C#Cc1cnc(NC(=O)NCCN(C)C)s1` [I-11, 3-((2-(3-(2-(dimethylamino)ethyl)ureido)thiazol-5-yl)ethynyl)-4-methyl-N-(4-(trifluoromethyl)pyridin-2-yl)benzamide], the GI50 in experiment [1] was 10 to 50 nM; in experiment [2], 10 to 50 nM; on BAF3 FL KIT EX11DEL it was less than 10 nM; in experiment [3], 10 to 50 nM.

For the compound `Cc1ccc(C(=O)Nc2cc(C(F)(F)F)ccn2)cc1C#Cc1cnc(NC(=O)NCCN2CCCC2)s1` [I-12, 4-methyl-3-((2-(3-(2-(pyrrolidin-1-yl)ethyl)ureido)thiazol-5-yl)ethynyl)-N-(4-(trifluoromethyl)pyridin-2-yl)benzamide], the GI50 is 50 to 100 nM in experiment [1], 50 to 100 nM in experiment [2], less than 10 nM on BAF3 FL KIT EX11DEL and 10 to 50 nM in experiment [3].

For the compound `Cc1ccc(C(=O)Nc2cc(C(F)(F)F)ccn2)cc1C#Cc1cnc(NC(=O)NCC2CCN(C)CC2)s1` [I-13, 4-methyl-3-((2-(3-((1-methylpiperidin-4-yl)methyl)ureido)thiazol-5-yl)ethynyl)-N-(4-(trifluoromethyl)pyridin-2-yl)benzamide], the 50% growth inhibitory concentration (GI50) was 10 to 50 nM in experiment [1], 10 to 50 nM in experiment [2], less than 10 nM at BAF3 FL KIT EX11DEL and 10 to 50 nM in experiment [3].

As for `Cc1ccc(C(=O)Nc2cc(C(F)(F)F)ccn2)cc1C#Cc1cnc(NC(=O)NCCN2CCN(C)CC2)s1` [I-14, 4-methyl-3-((2-(3-(2-(4-methylpiperazin-1-yl)ethyl)ureido)thiazol-5-yl)ethynyl)-N-(4-(trifluoromethyl)pyridin-2-yl)benzamide], the GI50 in experiment [1] is 10 to 50 nM; in experiment [2], 10 to 50 nM; on BAF3 FL KIT EX11DEL, less than 10 nM; in experiment [3] it was 10 to 50 nM.

Consider `Cc1ccc(C(=O)Nc2cc(C(F)(F)F)ccn2)cc1C#Cc1cnc(NC(=O)NCC(C)(C)O)s1` [I-15, 3-((2-(3-(2-hydroxy-2-methylpropyl)ureido)thiazol-5-yl)ethynyl)-4-methyl-N-(4-(trifluoromethyl)pyridin-2-yl)benzamide], for which the GI50 in experiment [1] is 10 to 50 nM; in experiment [2] it was 10 to 50 nM; on BAF3 FL KIT EX11DEL, less than 10 nM; in experiment [3], 10 to 50 nM.

For `Cc1ccc(C(=O)Nc2cc(C(F)(F)F)ccn2)cc1C#Cc1cnc(NC(=O)N(C)CCN2CCN(C)CC2)s1` [I-16, 4-methyl-3-((2-(3-methyl-3-(2-(4-methylpiperazin-1-yl)ethyl)ureido)thiazol-5-yl)ethynyl)-N-(4-(trifluoromethyl)pyridin-2-yl)benzamide], the GI50 is less than 10 nM in experiment [1], 10 to 50 nM in experiment [2], less than 10 nM on BAF3 FL KIT EX11DEL and 10 to 50 nM in experiment [3].

With `Cc1ccc(C(=O)Nc2cc(C(F)(F)F)ccn2)cc1C#Cc1cnc(NC(=O)NC2CC2)s1` [I-17, 3-((2-(3-cyclopropylureido)thiazol-5-yl)ethynyl)-4-methyl-N-(4-(trifluoromethyl)pyridin-2-yl)benzamide], the GI50 was 10 to 50 nM in experiment [1], 10 to 50 nM in experiment [2], less than 10 nM on BAF3 FL KIT EX11DEL and 10 to 50 nM in experiment [3].

Regarding `Cc1ccc(C(=O)Nc2cc(C(F)(F)F)ccn2)cc1C#Cc1cnc(NC(=O)NCCN2CCC(O)C2)s1` (stereo not drawn) [I-18, 3-((2-(3-(2-(3-hydroxypyrrolidin-1-yl)ethyl)ureido)thiazol-5-yl)ethynyl)-4-methyl-N-(4-(trifluoromethyl)pyridin-2-yl)benzamide], the GI50 in experiment [1] was 10 to 50 nM; in experiment [2] it was 10 to 50 nM; at BAF3 FL KIT EX11DEL, less than 10 nM; in experiment [3] it was 10 to 50 nM.

Turning to `Cc1ccc(NC(=O)c2cc(C(F)(F)F)ccn2)cc1C#Cc1cnc(NC(=O)N(C)C2CCN(C)CC2)s1` [I-53, N-(4-methyl-3-((2-(3-methyl-3-(I-methylpiperidin-4-yl)ureido)thiazol-5-yl)ethynyl)phenyl)-4-(trifluoromethyl)picolinamide], the GI50 in experiment [1] was 50 to 100 nM; in experiment [2] it was 10 to 50 nM; in experiment [3], 10 to 50 nM.

With `Cc1ccc(NC(=O)c2cc(C(F)(F)F)ccn2)cc1C#Cc1cnc(NC(=O)N(C)CCN2CCN(C)CC2)s1` [I-55, N-(4-methyl-3-((2-(3-methyl-3-(2-(4-methylpiperazin-1-yl)ethyl)ureido)thiazol-5-yl)ethynyl)phenyl)-4-(trifluoromethyl)picolinamide], the GI50 in experiment [1] lay in the range of 50 to 100 nM; in experiment [2] it was 10 to 50 nM; in experiment [3], 10 to 50 nM.
